# Biological target: Metabotropic glutamate receptor 5 (Rattus norvegicus, UniProt P31424)
# Assay: Concentration for half maximal activation of metabotropic glutamate mGluR5a in rat
# Chain of Metabotropic glutamate receptor 5 (P31424 whole entry): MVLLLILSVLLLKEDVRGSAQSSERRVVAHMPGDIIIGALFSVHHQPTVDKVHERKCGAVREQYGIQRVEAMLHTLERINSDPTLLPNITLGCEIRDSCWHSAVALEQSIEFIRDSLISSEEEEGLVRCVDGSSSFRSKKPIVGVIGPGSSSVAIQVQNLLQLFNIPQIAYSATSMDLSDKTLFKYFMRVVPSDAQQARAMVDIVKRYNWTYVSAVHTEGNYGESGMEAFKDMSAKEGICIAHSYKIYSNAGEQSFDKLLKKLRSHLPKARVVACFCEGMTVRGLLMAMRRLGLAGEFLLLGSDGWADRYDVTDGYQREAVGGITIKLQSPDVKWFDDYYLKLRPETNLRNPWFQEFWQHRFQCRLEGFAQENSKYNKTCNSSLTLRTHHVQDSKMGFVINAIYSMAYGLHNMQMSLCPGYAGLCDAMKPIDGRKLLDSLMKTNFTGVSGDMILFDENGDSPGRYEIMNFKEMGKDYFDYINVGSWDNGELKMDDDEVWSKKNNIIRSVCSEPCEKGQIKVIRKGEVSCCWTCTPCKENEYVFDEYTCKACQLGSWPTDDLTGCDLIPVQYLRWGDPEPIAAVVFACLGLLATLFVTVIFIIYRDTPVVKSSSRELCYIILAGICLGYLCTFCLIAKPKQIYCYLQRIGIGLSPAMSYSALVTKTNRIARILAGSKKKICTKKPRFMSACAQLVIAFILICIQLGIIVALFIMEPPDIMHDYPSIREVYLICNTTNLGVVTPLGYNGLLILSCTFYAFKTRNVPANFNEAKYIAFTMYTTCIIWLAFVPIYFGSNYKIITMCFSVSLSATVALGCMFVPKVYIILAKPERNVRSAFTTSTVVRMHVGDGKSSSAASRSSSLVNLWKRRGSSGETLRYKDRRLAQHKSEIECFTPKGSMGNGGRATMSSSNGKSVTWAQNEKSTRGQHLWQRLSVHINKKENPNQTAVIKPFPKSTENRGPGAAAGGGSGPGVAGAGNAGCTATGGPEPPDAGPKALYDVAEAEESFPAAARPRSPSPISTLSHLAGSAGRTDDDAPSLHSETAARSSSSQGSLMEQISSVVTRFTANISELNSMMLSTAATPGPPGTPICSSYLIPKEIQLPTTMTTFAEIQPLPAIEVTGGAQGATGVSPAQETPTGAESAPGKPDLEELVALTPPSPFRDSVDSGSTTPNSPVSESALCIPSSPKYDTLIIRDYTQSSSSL
row,SMILES,EC50 [µM]
1,"N[C@@H](Cn1oc(=O)[nH]c1=O)C(=O)O [2-amino-3-(3,5-dioxo[1,2,4]oxadiazolidin-2-yl)propionic acid]",0.3
2,"N[C@H](C(=O)O)c1cc(=O)[nH]o1 [(S)-Amino-(3-oxo-2,3-dihydro-isoxazol-5-yl)-acetic acid]",10
3,N[C@@H](CCC(=O)O)C(=O)O [L-Glutamic acid],10
4,N[C@@]1(C(=O)O)CC[C@@H](C(=O)O)C1 [SMR001230688],50

# Reference: BindingDB's records for doi:10.1021/jm00009a001 (Cns Research, 1995)
